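The compound was tested at five concentrations on cells cultured in 96-well plates, with a 48-hour exposure period. At the GI50, growth is halved.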 Calls of active or inactive are those of the source. Cut-off read from the data, not from the text of the source: active = GI50 up to about 1.1 µM and inactive = higher. Some results are limits rather than exact numbers.

Test systems include 786-0; A549; BT-549; HL-60; HOP-92; IGROV-1; K562; KM12; MDA-MB-231; MOLT-4; NCI-H522; NCI/ADR-RES; PC-3; SF-539; SK-MEL-28; SNB-75; MDA-N; RXF 393; UO-31; Hs-578T.
Holding throughout (assay): NCI tumour cell line growth inhibition, 48 h

Consider `N#C[BH2-][n+]1ccc(C(=O)NNC(c2ccccc2)C(F)(F)F)cc1` (centres undefined), for which the GI50 is > 100 µM (inactive) in the assay on 786-0; > 100 µM (inactive) in the assay with A549; > 100 µM (inactive) with BT-549; > 100 µM (inactive) in the assay on HL-60; 1 µM (active) with HOP-92; > 100 µM (inactive) in the assay on IGROV-1. Besides, the GI50 was > 100 µM (inactive) with K562; > 100 µM (inactive) with KM12; > 100 µM (inactive) in the assay with MDA-MB-231; > 100 µM (inactive) with MOLT-4; 68.9 µM (inactive) in the assay with NCI-H522; > 100 µM (inactive) in the assay on NCI/ADR-RES. The GI50 in the assay with PC-3, in the assay on SF-539, with SK-MEL-28 and in the assay on SNB-75 was > 100 µM (inactive) each time.
Consider `O=c1[nH]nc(Cc2ccccc2)n1-n1cnnc1`, for which the GI50 in the assay on 786-0, with A549, in the assay with BT-549, in the assay with HOP-92, with IGROV-1 and with K562 was > 100 µM (inactive) in each case. Also, the GI50 in the assay with KM12, in the assay with MDA-MB-231, with MDA-N, in the assay on MOLT-4, in the assay on NCI-H522 and in the assay with NCI/ADR-RES was > 100 µM (inactive) throughout. The GI50 in the assay on PC-3, in the assay with RXF 393, in the assay on SF-539, with SK-MEL-28, in the assay on SNB-75 and with UO-31 was > 100 µM (inactive) in each case.
`O=C(Nc1nc2ccc([N+](=O)[O-])cc2s1)c1cc([N+](=O)[O-])ccc1Cl`: the GI50 was 2.75 µM (inactive) in the assay on 786-0; 2.24 µM (inactive) with BT-549; 0.675 µM (active) with HOP-92; 3.4 µM (inactive) in the assay on KM12; 2.55 µM (inactive) with MDA-MB-231; 1.48 µM (inactive) with MDA-N. The GI50 was 3.21 µM (inactive) with MOLT-4; 1.68 µM (inactive) in the assay with NCI-H522; 1.91 µM (inactive) in the assay with NCI/ADR-RES; 3.69 µM (inactive) with RXF 393; 2.68 µM (inactive) in the assay on SF-539; 2.22 µM (inactive) in the assay with SNB-75.
Consider `COCCOC(=O)C1=C(O)c2ccccc2S(=O)(=O)N1C`, for which the GI50 in the assay with 786-0, with A549, in the assay with HL-60, in the assay with HOP-92, in the assay on Hs-578T and in the assay with IGROV-1 was > 100 µM (inactive) in each case. For the same molecule, the GI50 in the assay with K562, in the assay on KM12, in the assay with MDA-MB-231, in the assay with MDA-N, with MOLT-4 and in the assay on NCI-H522 was > 100 µM (inactive) throughout. In addition, the GI50 is > 100 µM (inactive) with NCI/ADR-RES; > 100 µM (inactive) in the assay on PC-3; > 100 µM (inactive) in the assay with RXF 393; > 100 µM (inactive) with SF-539; > 100 µM (inactive) in the assay on SK-MEL-28; 12.5 µM (inactive) with SNB-75. The GI50 with UO-31 was > 100 µM (inactive).
On to `O=C(Cn1cc(-c2ccccc2)nn1)NC1CCCC1`, for which the GI50 in the assay on 786-0, in the assay with A549, in the assay on BT-549, in the assay on HL-60, with HOP-92 and with IGROV-1 was > 100 µM (inactive) throughout. Further, the GI50 in the assay with K562, in the assay on KM12, with MDA-MB-231, with MOLT-4, in the assay on NCI-H522 and in the assay on NCI/ADR-RES was > 100 µM (inactive) each time. The GI50 in the assay on PC-3 is > 100 µM (inactive); in the assay on SF-539 it was > 100 µM (inactive); in the assay with SK-MEL-28, > 100 µM (inactive); in the assay on SNB-75 it was 56.2 µM (inactive).
For `c1ccc(-c2nc3ccccc3n3nnnc23)cc1`, the GI50 with 786-0 was 57.1 µM (inactive); with A549 it was > 100 µM (inactive); in the assay with BT-549 it was > 100 µM (inactive); in the assay with HL-60, > 100 µM (inactive); with HOP-92 it was > 100 µM (inactive); in the assay on IGROV-1, > 100 µM (inactive). Further, the GI50 with K562, in the assay on KM12, in the assay on MDA-MB-231, in the assay on MDA-N, in the assay on MOLT-4 and with NCI/ADR-RES was > 100 µM (inactive) in each case. For the same molecule, the GI50 with PC-3 is > 100 µM (inactive); in the assay on RXF 393 it was 52.1 µM (inactive); in the assay with SF-539, > 100 µM (inactive); with SK-MEL-28, > 100 µM (inactive); in the assay on UO-31 it was 0.424 µM (active).
Regarding `O=Cc1ccc2c(c1)CC1(C2)Cc2ccc(C=O)cc2C1`, the GI50 is 7.45 µM (inactive) in the assay with 786-0; 40.5 µM (inactive) in the assay on A549; 2 µM (inactive) in the assay on HL-60; 20.6 µM (inactive) in the assay on HOP-92; 3.26 µM (inactive) in the assay with Hs-578T; 21.5 µM (inactive) with IGROV-1. In addition, the GI50 is 2.89 µM (inactive) with K562; 28.1 µM (inactive) in the assay with KM12; 12.2 µM (inactive) in the assay on MDA-MB-231; 2.45 µM (inactive) in the assay on MDA-N; 2.77 µM (inactive) in the assay on MOLT-4; 22.6 µM (inactive) with NCI-H522. For the same molecule, the GI50 was 4.88 µM (inactive) with NCI/ADR-RES; 17.1 µM (inactive) in the assay with PC-3; 3.61 µM (inactive) in the assay on RXF 393; 4.81 µM (inactive) in the assay on SF-539; 23.7 µM (inactive) in the assay with SK-MEL-28; 61.8 µM (inactive) with SNB-75. In addition, the GI50 with UO-31 is 11.9 µM (inactive).
On to `CCc1cc2c(cc1C(=O)CCC(=O)O)CC1(C2)Cc2cc(CC)c(C(=O)CCC(=O)O)cc2C1`, for which the GI50 in the assay with 786-0, in the assay on A549, with HL-60, in the assay on HOP-92, in the assay with Hs-578T and with IGROV-1 was > 100 µM (inactive) in each case. Further, the GI50 with K562 is 91.2 µM (inactive); in the assay with KM12 it was > 100 µM (inactive); in the assay on MDA-MB-231, > 100 µM (inactive); with MDA-N, > 100 µM (inactive); with MOLT-4, > 100 µM (inactive); in the assay with NCI-H522, > 100 µM (inactive). The GI50 is > 100 µM (inactive) with NCI/ADR-RES; > 100 µM (inactive) in the assay on PC-3; > 100 µM (inactive) with RXF 393; > 100 µM (inactive) with SF-539; 35.6 µM (inactive) with SK-MEL-28; 50.5 µM (inactive) in the assay with SNB-75. For the same molecule, the GI50 with UO-31 is > 100 µM (inactive).
Consider `CC(C)(SCc1ccccc1)C(N)C(=O)O` (centres undefined), for which the GI50 in the assay with 786-0, in the assay on A549, in the assay with BT-549, with HL-60, in the assay with HOP-92 and in the assay on IGROV-1 was > 100 µM (inactive) throughout. Moreover, the GI50 in the assay on K562, in the assay on KM12, with MDA-MB-231, in the assay with MDA-N, with MOLT-4 and with NCI-H522 was > 100 µM (inactive) in each case. Further, the GI50 in the assay on NCI/ADR-RES, with PC-3, with RXF 393, in the assay with SK-MEL-28, with SNB-75 and in the assay on UO-31 was > 100 µM (inactive) each time.
As to `CC1=CCC[C@H]2[C@](C)(CC3=CC(=O)C(SCC(C)C)=CC3=O)[C@@H](C)CC[C@]12C`, the GI50 in the assay with 786-0 is 14 µM (inactive); in the assay on A549, 12.5 µM (inactive); in the assay on BT-549, 17.6 µM (inactive); in the assay on HOP-92, 4.84 µM (inactive); in the assay on IGROV-1, 11 µM (inactive); in the assay with K562 it was 5.78 µM (inactive). Further, the GI50 with KM12 is 11.2 µM (inactive); in the assay on MDA-MB-231, 24.6 µM (inactive); with MOLT-4, 1.53 µM (inactive); in the assay on NCI/ADR-RES it was 16 µM (inactive); in the assay on PC-3, 15 µM (inactive); with RXF 393, 9.68 µM (inactive). Besides, the GI50 in the assay on SF-539 is 18 µM (inactive); with SK-MEL-28, 15.8 µM (inactive); in the assay on SNB-75, 10.9 µM (inactive); with UO-31, 11.7 µM (inactive).
As to `C=CCO[C@]1(CC=C)C(=O)C(=O)OC1C1COC(C)(C)O1` (some centres undefined), the GI50 in the assay on 786-0 is 35.1 µM (inactive); in the assay on A549, > 100 µM (inactive); in the assay with HL-60, > 10 µM (inactive); in the assay with HOP-92, 22.3 µM (inactive); in the assay on Hs-578T, 74 µM (inactive); in the assay on IGROV-1 it was > 100 µM (inactive). Also, the GI50 was 27.4 µM (inactive) with K562; 18.8 µM (inactive) in the assay on KM12; 41.6 µM (inactive) with MDA-MB-231; 36 µM (inactive) in the assay with MDA-N; 31.8 µM (inactive) with MOLT-4; 21.2 µM (inactive) in the assay on NCI-H522. In addition, the GI50 in the assay on NCI/ADR-RES is 37.4 µM (inactive); in the assay with PC-3, 44.6 µM (inactive); in the assay on RXF 393 it was 19.8 µM (inactive); in the assay on SF-539, > 100 µM (inactive); with SK-MEL-28 it was > 10 µM (inactive); with SNB-75 it was 27.7 µM (inactive). Also, in the assay with UO-31, the GI50 is 84.5 µM (inactive).

Source of the values: ChEMBL document CHEMBL1201862, “PubChem BioAssay data set” (2004).
